Source: paper PMC5065237, “Investigation into the Mode of Phosphate Activation in the 4-Hydroxy-4-Methyl-2-Oxoglutarate/4-Carboxy-4-Hydroxy-2-Oxoadipate Aldolase from Pseudomonas putida F1” (PLoS ONE, 2016)

How the values were obtained:
HMG/CHA aldolase [1] = molecular target: T1, HMG/CHA aldolase (Pseudomonas putida, UniProt A5W059); assay: decarboxylation, LDH-coupled NADH oxidation at […] nm; assay type: biochemical; conditions: substrate inhibition constant, 1 mM MgCl2, 0.1 M HEPES pH 8.0, 25 °C
T1 construct: gene Pput_1361; recombinant from pT7-7, expressed in E. coli; chelex-treated apo-enzyme reconstituted with MgCl2

HMG/CHA aldolase [2] = molecular target: T1, HMG/CHA aldolase; assay: aldol cleavage, LDH-coupled NADH oxidation at […] nm; assay type: biochemical; conditions: substrate inhibition constant, 1 mM MgCl2, 0.1 M HEPES pH 8.0, 25 °C, racemic substrate

T1 sequence (A5W059 whole entry): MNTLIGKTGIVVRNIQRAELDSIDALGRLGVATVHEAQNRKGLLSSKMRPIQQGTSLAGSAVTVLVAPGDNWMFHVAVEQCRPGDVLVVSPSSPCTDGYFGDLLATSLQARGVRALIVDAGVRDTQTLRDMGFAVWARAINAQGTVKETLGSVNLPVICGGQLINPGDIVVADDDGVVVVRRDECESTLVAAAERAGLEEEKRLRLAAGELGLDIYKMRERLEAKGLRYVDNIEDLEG

SMILES	Without Pi / Ksi (HMG/CHA aldolase [1]) [mM]	Without Pi / Ksi (HMG/CHA aldolase [2]) [mM]
O=C(O)CC(=O)C(=O)O [OAA]	0.360 ± 0.049	
CC(O)(CC(=O)C(=O)O)C(=O)O (racemic) [HMG]		1.80 ± 0.091
